Assays:
[1] = system: experimental autoimmune encephalitis (EAE) model of MS; assay: EAE in mice immunized with MOG35-55, treated daily with melatonin or vehicle; format: in vivo, C57BL/6 wild-type mice; conditions: melatonin 5 mg/kg intraperitoneally daily
Splenocytes = assay: Recall response to MOG35-55 of splenocytes from melatonin-treated mice; format: in vivo
Experimental: Secreted cytokines were measured in tissue culture supernatants after 72-96 hs by enzyme-linked immunosorbent assay as previously described (Farez et al., 2009). […] The cells were pulsed with [3H]thymidine (1 μCi/well) for the final 24 h. The frequency of T cells producing IL-17 (eBioscience), IFN-γ (BioLegend) or IL-10 (BD Pharmingen) and Foxp3+ T cells (eBioscience) was assessed by flow cytometry. For CFSE-based proliferation assay, CD4+ T cells were labeled with 1 μM CFSE (carboxyfluorescein diacetate succinimidyl ester; Molecular Probes). Data were acquired on an […] (BD Biosciences) or MacsQuants (Miltenyi) and analyzed with FlowJo software (TreeStar). To further characterize the effects of melatonin on the encephalitogenic T-cell response, we analyzed the recall response to MOG35-55. […] Thus, melatonin arrests the encephalitogenic Th17 cell response.

CD4+ T cells = assay: Co-incubation of sorted CD4+ T cells with treatment-switched dendritic cells; format: in vivo; conditions: CD4+ T cells from melatonin-treated mice co-incubated with splenic DCs from control mice
Experimental: To investigate if melatonin acts directly on T cells or whether it controls the T-cell response indirectly through its effects on antigen presenting cells, we co-incubated sorted CD4^+ T cells from melatonin-treated or control mice with treatment-switched dendritic cells (DCs).

[2] = system: human CD4+ T cells activated under Tr1 polarizing conditions; assay: In vitro human Tr1 differentiation; format: cell-based; conditions: 500 ng/ml
From the text: We then studied the effects of melatonin on human CD4^+ T cells. In addition, we also analyzed the effects of agomelatine, which activates melatonin-dependent signaling (Hickie and Rogers, 2011). Based on the effects of melatonin administration on T cells during EAE, we focused our studies on human Th17 and Tr1 cells. Melatonin and agomelatine reduced the production of IL-17, RORC and IL17A expression by human CD4^+ T cells activated under Th17 polarizing conditions (FIGS. 3a-c and FIG. 8), no effect was detected on the differentiation of human Th1 cells (FIGS. 3d-f). Concomitantly, melatonin and agomelatine increased IL10 expression.

Tr1 cells = assay: In vitro mouse Tr1 cell differentiation; format: cell-based
Experimental: Naive CD4+ T cells (CD4+CD44loCD62LhiCD25−) were from the spleen and lymph node of C57BL/6 wild-type, MTNR1A−, NFIL3−, REV-ERBα, C/EBPα-deficient or RORα-deficient mice using magnetic beads (CD4+ T cell isolation kit, Miltenyi Biotec). All experiments were started between 7 and 9 am. Cells were activated with plate-bound anti-CD3 (2 μg/ml; 14-0031-86; eBioscience) and anti-CD28 (2 μg/ml; 16-0281-86; eBioscience). Mouse IL-27 (30 ng/ml; 34-8271; Biolegend) was added for the generation of Tr1 cells. IL-6 (30 ng/ml; 406-ML-025; R&D Systems), TGF-β1 (15 ng/ml; 130-095-067; Miltenyi Biotec), anti-IL-4 (2.5 μg/ml; C17.8; Biolegend) and anti-IFN-γ (5 μg/ml; XMG1.2; Biolegend) were added for the generation of Th17 cells. Recombinant mouse IL-23 (30 ng/ml; 1887-ML-010; R&D Systems) was added at day 2. For some experiments IL-6 and […] (10 ng/ml; 401-ML-025; R&D Systems) or TGF-β1 and IL-21 (100 ng/ml; 594-ML-010; R&D Systems) were used in instead for Th17 cell differentiation. IL-12 (30 ng/ml; 419-ML-010; R&D Systems) and anti-IL-4 (2.5 μg/ml; C17.8; Biolegend) were used for the generation of Th1 cells. IL-4 (30 ng/ml; 404-ML-010; R&D Systems) and anti-IFN-γ (5 μg/ml; XMG1.2; Biolegend) was added for the generation of Th2 cells. TGF-β1 (15 ng/ml; 130-095-067; Miltenyi Biotec) was used for the generation of Foxp3+ Tregs. Melatonin (Gador, Argentina), Agomelatin, and CGP-52608 (Sigma-Aldrich) were added at the start of the cultures and at day 2, at a final concentration of 2-20 ng/ml.

ROR-α = assay: Chromatin immunoprecipitation with anti-ROR-α at the il10 promoter; format: cell-based, mouse; conditions: T-cell activation under Tr1 polarizing conditions in the presence of melatonin
Experimental: DNA-protein complexes in cells were crosslinked with 4% paraformaldehyde and lysed with 0.35 ml lysis buffer (1% SDS, 10 mM EDTA and 50 mM Tris-HCl, pH 8.1) containing 1×protease inhibitor ‘cocktail’ (Roche Molecular Biochemicals). Chromatin was sheared by sonication and supernatants collected after centrifugation were diluted in buffer (1% Triton X-100, 2 mM EDTA, 150 mM NaCl and 20 mM Tris-HCl, pH 8.1). 5 μg antibody was prebound for a minimum of 6 hs to protein A and protein G Dynal magnetic beads (Invitrogen) and samples were washed three times with ice-cold PBS containing 5% BSA, and then were added to the diluted chromatin, followed by immunoprecipitation overnight. The magnetic bead-chromatin complexes were then washed three times in radioimmunoprecipitation buffer (50 mM HEPES, pH 7.6, 1 mM EDTA, 0.7% Na deoxycholate, 1% NP-40 and 0.5 M LiCl), followed by two washes with Tris-EDTA buffer. Immunoprecipitated chromatin was then extracted with a solution of 1% SDS and 0.1 MNaHCO3 and was heated at 65° C. for at least 6 h for reversal of the paraformaldehyde cross-linking. DNA fragments were purified with a QIAquick DNA purification Kit (Qiagen) and were analyzed by SYBR Green real-time PCR (Takara Bio).

COc1ccc2[nH]cc(CCNC(C)=O)c2c1 [Melatonin, N-Acetyl-5-methoxytryptamine]
EAE clinical symptoms [1]: ameliorated
Mean onset day (mean ± sd) [1]: 11.8 ± 3.0 days
Mortality [1]: 0/24
Mean maximum score (mean ± sd) ([1]; **P < 0.05): 2.06 ± 0.8**
Incidence (%) ([1]; *P = 0.05): 65%
Incidence (animals) ([1]; *P = 0.05): 17/24
proliferative response to MOG35-55 (Splenocytes): diminished
IFN-γ production (Splenocytes; recall to MOG35-55): no significant effects
IL-10 production (Splenocytes; recall to MOG35-55): increased
IL-17 production (Splenocytes; recall to MOG35-55): reduced
IL-10 production (CD4+ T cells): increased
proliferation and IL-17 secretion (CD4+ T cells): decreased
IL-10 production [2]: increased
expression of IL-10 and the Tr1-associated molecules il21, ahr and cmaf (Tr1 cells; Tr1 polarizing conditions, melatonin 2 ng/ml): boosted
suppressive activity of Tr1 cells in vitro (Tr1 cells; co-culture with CFSE-labeled CD4+ T cells, 48 hs): boosted
binding of ROR-α to the il10 promoter (ROR-α): increased

Reference: patent US10555919B2, “Melatonin in autoimmune disease” (The Brigham and Women's Hopsital, Inc., priority 2014, dated 2020)
